Measured values taken from PubChem BioAssay (NCI).
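Each compound was tested at five concentrations against cells in 96-well plates for 48 hours. GI50 marks 50% less growth. TGI: total growth inhibition.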

Columns and labels:
Assay in all cases: NCI-60 cell line screen, 48 h
786-0 renal = system: 786-0 renal
A498 renal = system: A498 renal
A549 NSCLC = system: A549 NSCLC
ACHN renal = system: ACHN renal
BT-549 breast = system: BT-549 breast
CAKI-1 renal = system: CAKI-1 renal
CCRF-CEM leukemia = system: CCRF-CEM leukemia
COLO 205 colon = system: COLO 205 colon
DU-145 prostate = system: DU-145 prostate
EKVX NSCLC = system: EKVX NSCLC
HCC-2998 colon = system: HCC-2998 colon
HCT-116 colon = system: HCT-116 colon
HCT-15 colon = system: HCT-15 colon
HL-60(TB) leukemia = system: HL-60(TB) leukemia
HOP-62 NSCLC = system: HOP-62 NSCLC
HOP-92 NSCLC = system: HOP-92 NSCLC
HS 578T breast = system: HS 578T breast
HT29 colon = system: HT29 colon
IGROV1 ovarian = system: IGROV1 ovarian
K-562 leukemia = system: K-562 leukemia
KM12 colon = system: KM12 colon
LOX IMVI melanoma = system: LOX IMVI melanoma
M14 melanoma = system: M14 melanoma
MALME-3M melanoma = system: MALME-3M melanoma
MCF7 breast = system: MCF7 breast
MDA-MB-231 breast = system: MDA-MB-231 breast
MDA-MB-435 = system: MDA-MB-435
MOLT-4 leukemia = system: MOLT-4 leukemia
NCI-H226 lung = system: NCI-H226 lung
NCI-H23 lung = system: NCI-H23 lung
NCI-H460 lung = system: NCI-H460 lung
NCI-H522 lung = system: NCI-H522 lung
NCI/ADR-RES ovarian = system: NCI/ADR-RES ovarian
OVCAR-3 ovarian = system: OVCAR-3 ovarian
OVCAR-4 ovarian = system: OVCAR-4 ovarian
OVCAR-5 ovarian = system: OVCAR-5 ovarian
OVCAR-8 ovarian = system: OVCAR-8 ovarian
PC-3 prostate = system: PC-3 prostate
RPMI-8226 leukemia = system: RPMI-8226 leukemia
RXF 393 renal = system: RXF 393 renal
SF-268 CNS = system: SF-268 CNS
SF-295 CNS = system: SF-295 CNS
SF-539 CNS = system: SF-539 CNS
SK-MEL-2 melanoma = system: SK-MEL-2 melanoma
SK-MEL-28 melanoma = system: SK-MEL-28 melanoma
SK-MEL-5 melanoma = system: SK-MEL-5 melanoma
SK-OV-3 ovarian = system: SK-OV-3 ovarian
SN12C renal = system: SN12C renal
SNB-19 CNS = system: SNB-19 CNS
SNB-75 CNS = system: SNB-75 CNS
SR leukemia = system: SR leukemia
SW-620 colon = system: SW-620 colon
T-47D breast = system: T-47D breast
TK-10 renal = system: TK-10 renal
U251 CNS = system: U251 CNS
UACC-257 melanoma = system: UACC-257 melanoma
UACC-62 melanoma = system: UACC-62 melanoma
UO-31 renal = system: UO-31 renal

## NS(=O)(=O)c1ccc(Nc2ncc(-c3ccccc3)o2)cc1
786-0 renal
  GI50: > 25 µM
  TGI: > 25 µM
A498 renal
  GI50: > 19.6 µM
  TGI: > 25 µM
A549 NSCLC
  GI50: > 25 µM
  TGI: > 25 µM
ACHN renal
  GI50: > 25 µM
  TGI: > 25 µM
BT-549 breast
  GI50: > 25 µM
  TGI: > 25 µM
CAKI-1 renal
  GI50: > 25 µM
  TGI: > 25 µM
CCRF-CEM leukemia
  GI50: > 25 µM
  TGI: > 25 µM
COLO 205 colon
  GI50: > 23.7 µM
  TGI: > 25 µM
DU-145 prostate
  GI50: > 25 µM
  TGI: > 25 µM
EKVX NSCLC
  GI50: > 25 µM
  TGI: > 25 µM
HCC-2998 colon
  GI50: > 25 µM
  TGI: > 25 µM
HCT-116 colon
  GI50: > 25 µM
  TGI: > 25 µM
HCT-15 colon
  GI50: > 25 µM
  TGI: > 25 µM
HL-60(TB) leukemia
  GI50: > 25 µM
  TGI: > 25 µM
HOP-62 NSCLC
  GI50: > 25 µM
  TGI: > 25 µM
HOP-92 NSCLC
  GI50: > 25 µM
  TGI: > 25 µM
HS 578T breast
  GI50: 20.5 µM
  TGI: > 25 µM
HT29 colon
  GI50: > 25 µM
  TGI: > 25 µM
IGROV1 ovarian
  GI50: > 25 µM
  TGI: > 25 µM
K-562 leukemia
  GI50: > 25 µM
  TGI: > 25 µM
KM12 colon
  GI50: > 25 µM
  TGI: > 25 µM
LOX IMVI melanoma
  GI50: > 25 µM
  TGI: > 25 µM
M14 melanoma
  GI50: > 25 µM
  TGI: > 25 µM
MALME-3M melanoma
  GI50: > 25 µM
  TGI: > 25 µM
MCF7 breast
  GI50: > 25 µM
  TGI: > 25 µM
MDA-MB-231 breast
  GI50: > 25 µM
  TGI: > 25 µM
MDA-MB-435
  GI50: > 25 µM
  TGI: > 25 µM
MOLT-4 leukemia
  GI50: > 25 µM
  TGI: > 25 µM
NCI-H226 lung
  GI50: > 25 µM
  TGI: > 25 µM
NCI-H23 lung
  GI50: > 25 µM
  TGI: > 25 µM
NCI-H460 lung
  GI50: > 25 µM
  TGI: > 25 µM
NCI-H522 lung
  GI50: > 25 µM
  TGI: > 25 µM
NCI/ADR-RES ovarian
  GI50: > 25 µM
  TGI: > 25 µM
OVCAR-3 ovarian
  GI50: > 25 µM
  TGI: > 25 µM
OVCAR-4 ovarian
  GI50: > 25 µM
  TGI: > 25 µM
OVCAR-5 ovarian
  GI50: > 25 µM
  TGI: > 25 µM
OVCAR-8 ovarian
  GI50: > 25 µM
  TGI: > 25 µM
PC-3 prostate
  GI50: > 25 µM
  TGI: > 25 µM
RPMI-8226 leukemia
  GI50: > 25 µM
  TGI: > 25 µM
RXF 393 renal
  GI50: > 25 µM
  TGI: > 25 µM
SF-268 CNS
  GI50: > 25 µM
  TGI: > 25 µM
SF-295 CNS
  GI50: > 25 µM
  TGI: > 25 µM
SF-539 CNS
  GI50: > 22.9 µM
  TGI: > 25 µM
SK-MEL-2 melanoma
  GI50: > 25 µM
  TGI: > 25 µM
SK-MEL-28 melanoma
  GI50: > 25 µM
  TGI: > 25 µM
SK-MEL-5 melanoma
  GI50: > 25 µM
  TGI: > 25 µM
SK-OV-3 ovarian
  GI50: > 25 µM
  TGI: > 25 µM
SN12C renal
  GI50: > 25 µM
  TGI: > 25 µM
SNB-19 CNS
  GI50: > 25 µM
  TGI: > 25 µM
SNB-75 CNS
  GI50: > 9.68 µM
  TGI: > 25 µM
SR leukemia
  GI50: 9.69 µM
  TGI: > 25 µM
SW-620 colon
  GI50: > 22.1 µM
  TGI: > 25 µM
T-47D breast
  GI50: > 25 µM
  TGI: > 25 µM
TK-10 renal
  GI50: > 25 µM
  TGI: > 25 µM
U251 CNS
  GI50: > 25 µM
  TGI: > 25 µM
UACC-257 melanoma
  GI50: > 25 µM
  TGI: > 25 µM
UACC-62 melanoma
  GI50: > 25 µM
  TGI: > 25 µM
UO-31 renal
  GI50: > 25 µM
  TGI: > 25 µM
